Measured values published in ChEMBL document CHEMBL4732045, “Amide Bond Bioisosteres: Strategies, Synthesis, and Successes” (J Med Chem, 2020).
Values belong to the compound of their own block, whether it stands above or below them.

Experiments:
[1] = Inhibition of HIV2 protease; parameters: species or system Human immunodeficiency virus 2
[2] = tested on: Human immunodeficiency virus 1; test: Antiviral activity against HIV1 3b isolate infected in human MT4 cells assessed as blockade of viral spread pretreated for 24 hrs followed by viral infection and subsequently treated with compound every 2 to 3 days post infection by ELISA; assay type: functional; conditions: Human immunodeficiency virus 1, 3b isolate, read-out: CIC95
[3] = target: Delta-type opioid receptor (Mus musculus, UniProt P32300); test: Inhibition of [3H]-Deltorphin 2 binding to mouse delta opioid receptor expressed in rat GH3 cell membranes by Cheng-Prusoff analysis; parameters: species or system Cell membrane
PC-3 [4] = test: Cytotoxicity against human PC-3 cells incubated for 96 hrs by MTT assay; assay type: functional, cell-based; conditions: PC-3, 96 h
CAKI-2 = test: Cytotoxicity against human Caki-2 cells incubated for 96 hrs by MTT assay; assay type: functional, cell-based; conditions: CAKI-2, 96 h
HT-29 = test: Cytotoxicity against human HT-29 cells incubated for 96 hrs by MTT assay; assay type: functional, cell-based; conditions: HT-29, 96 h
A549 = test: Cytotoxicity against human A549 cells incubated for 96 hrs by MTT assay; assay type: functional, cell-based; conditions: A549, 96 h
HL-60 [5] = test: Cytotoxicity against human HL-60 cells incubated for 96 hrs by MTT assay; assay type: functional, cell-based; conditions: HL-60, 96 h
[6] = tested on: Poly(dA-dT)oligonucleotide; test: Binding affinity to poly (dA-dT) (unknown origin) by ethidium displacement assay; assay type: nucleic-acid assay
[7] = tested on: Poly(dG-dC)oligonucleotide; test: Binding affinity to poly (dG-dC) (unknown origin) by ethidium displacement assay; assay type: nucleic-acid assay
[8] = target: T1, Human immunodeficiency virus type 1 protease (Human immunodeficiency virus 1, UniProt Q72874); test: Inhibition of HIV1 protease
[9] = target: T1, Human immunodeficiency virus type 1 protease; test: Inhibition of HIV-1 protease
Rattus norvegicus = test: Immunosuppressive activity in Lewis rat model of Heart Allotransplantation assessed as mean survival days at 6 mg/kg, ip administered for 10 days by Manntel-Haenszel test; assay type: functional; conditions: time 10 day
Mus musculus [10] = test: Immunosuppressive activity in B6D2F1 mouse model of graft-versus-host disease assessed as mean survival days at 1 mg/kg, ip administered for day 1 to day 10 (day 6 omitted) and measured at day 60; assay type: functional; conditions: time 60 day
Mus musculus [11] = test: Immunosuppressive activity in B6D2F1 mouse model of graft-versus-host disease assessed as mean survival days at 3 mg/kg, ip administered for day 1 to day 10 (day 6 omitted) and measured at day 60; assay type: functional; conditions: time 60 day
[12] = Growth inhibition of BAEC incubated for 3 days by Coulter counter method; conditions: Bos taurus, 72 h
HMEC-1 = test: Growth inhibition of HMEC-1 incubated for 4 days by Coulter counter method; assay type: cell-based; conditions: Homo sapiens, HMEC-1, 96 h
CCRF-CEM = test: Antiproliferative activity against human CEM cells incubated for 96 hrs by Coulter counter method; assay type: functional, cell-based
HeLa [13] = test: Antiproliferative activity against human HeLa cells incubated for 4 days by Coulter counter method; assay type: functional, cell-based; conditions: 96 h
L1210 = test: Antiproliferative activity against mouse L1210 cells incubated for 48 hrs by Coulter counter method; assay type: functional, cell-based; conditions: L1210, 48 h
MDA-MB-231 = test: Antiproliferative activity against human MDA-MB-231 cells; assay type: functional, cell-based
Neprilysin = Neprilysin (Homo sapiens, UniProt P08473); test: Inhibition of NEP 24.11 (unknown origin) by fluorometric assay
[14] = target: D(2) dopamine receptor (Bos taurus) (UniProt P20288); test: Modulation of [3H]Spiroperidol/N-Propylnorapomorphine binding to dopamine D2 receptor in bovine striatal membranes incubated for 1 hr in presence of Gpp(NH)p by Cheng-Prusoff analysis; assay type: cell membranes; conditions: Striatum, Membrane, filed as modulator
[15] = target: D(2) dopamine receptor (Bos taurus) (UniProt P20288); test: Modulation of [3H]Spiroperidol/N-Propylnorapomorphine binding to dopamine D2 receptor in bovine striatal membranes incubated for 1 hr by Cheng-Prusoff analysis; assay type: cell membranes; conditions: Striatum, Membrane, filed as modulator
Integrin alpha-4/beta-1 = Integrin alpha-4/beta-1 (Homo sapiens, UniProt P05556+P13612); test: Displacement of 125I-VCAM-Ig from VLA4 in human Jurkat cells incubated for 30 mins by scintillation counting method; assay type: cell-based
HeLa [16] = test: Cytotoxicity against human HeLa cells incubated for 96 hrs by MTT assay; assay type: functional, cell-based
PC-3 [17] = test: Cytotoxicity activity against human PC-3 cells incubated for 96 hrs by MTT method; assay type: functional, cell-based; conditions: PC-3, 96 h
HL-60 [18] = test: Cytotoxicity activity against human HL-60 cells incubated for 96 hrs by MTT assay; assay type: functional, cell-based; conditions: HL-60, 96 h
Matrilysin = Matrilysin (Homo sapiens, UniProt P09237); test: Inhibition of human MMP7 by fluorometric assay
[19] = target: 72 kDa type IV collagenase (Homo sapiens, UniProt P08253); test: Inhibition of TNF-induced MMP2 isolated from human HT-1080 cell medium by fluorometric assay; assay type: tissue-based
Interstitial collagenase = Interstitial collagenase (Homo sapiens, UniProt P03956); test: Inhibition of PMA-induced human skin fibroblast derived MMP1 by fluorometric assay; assay type: tissue-based
[20] = Oral bioavailability in monkey at 10 mg/kg; assay type: ADME, organism-based, Macaca mulatta; conditions: rhesus monkey, in vivo
Stromelysin-1 = Stromelysin-1 (Homo sapiens, UniProt P08254); test: Inhibition of human MMP3 by fluorometric assay
[21] = Half life in monkey at 10 mg/kg, po; assay type: ADME, organism-based, Macaca mulatta; conditions: rhesus monkey, in vivo

D(2) dopamine receptor (Bos taurus), sequence (P20288 whole entry): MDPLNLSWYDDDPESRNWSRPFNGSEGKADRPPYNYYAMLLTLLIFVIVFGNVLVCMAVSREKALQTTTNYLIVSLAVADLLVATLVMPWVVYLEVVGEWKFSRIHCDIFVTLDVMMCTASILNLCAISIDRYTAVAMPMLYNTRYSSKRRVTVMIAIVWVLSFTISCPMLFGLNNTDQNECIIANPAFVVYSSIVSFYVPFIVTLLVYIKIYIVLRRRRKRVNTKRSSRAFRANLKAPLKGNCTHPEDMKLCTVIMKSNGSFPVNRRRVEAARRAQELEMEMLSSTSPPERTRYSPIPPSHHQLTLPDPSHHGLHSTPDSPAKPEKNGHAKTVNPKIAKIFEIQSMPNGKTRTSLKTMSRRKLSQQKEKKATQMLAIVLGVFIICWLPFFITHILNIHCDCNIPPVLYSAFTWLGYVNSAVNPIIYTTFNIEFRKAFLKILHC
Delta-type opioid receptor, sequence (P32300 whole entry): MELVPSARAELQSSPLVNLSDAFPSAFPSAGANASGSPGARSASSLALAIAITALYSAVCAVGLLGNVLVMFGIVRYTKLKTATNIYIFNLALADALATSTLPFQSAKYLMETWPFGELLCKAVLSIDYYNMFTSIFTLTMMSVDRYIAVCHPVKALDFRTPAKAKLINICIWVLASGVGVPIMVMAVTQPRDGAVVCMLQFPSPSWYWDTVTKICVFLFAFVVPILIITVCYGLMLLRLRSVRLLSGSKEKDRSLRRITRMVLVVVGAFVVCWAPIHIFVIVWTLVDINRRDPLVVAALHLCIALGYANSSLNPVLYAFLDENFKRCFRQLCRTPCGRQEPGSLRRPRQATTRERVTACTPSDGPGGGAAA
Interstitial collagenase, sequence (P03956 whole entry): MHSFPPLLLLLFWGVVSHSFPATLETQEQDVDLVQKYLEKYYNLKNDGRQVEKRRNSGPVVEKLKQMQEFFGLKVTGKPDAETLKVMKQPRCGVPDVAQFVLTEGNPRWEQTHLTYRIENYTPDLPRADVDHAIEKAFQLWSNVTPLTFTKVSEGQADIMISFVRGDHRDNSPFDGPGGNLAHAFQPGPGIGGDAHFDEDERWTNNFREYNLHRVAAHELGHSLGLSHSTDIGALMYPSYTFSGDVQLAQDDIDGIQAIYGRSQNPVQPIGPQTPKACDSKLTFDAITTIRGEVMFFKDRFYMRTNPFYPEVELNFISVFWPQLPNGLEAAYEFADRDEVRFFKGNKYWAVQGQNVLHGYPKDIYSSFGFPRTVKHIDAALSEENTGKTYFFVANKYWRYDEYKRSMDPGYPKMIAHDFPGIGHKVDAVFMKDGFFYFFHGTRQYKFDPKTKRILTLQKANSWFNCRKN
Matrilysin, sequence (P09237 whole entry): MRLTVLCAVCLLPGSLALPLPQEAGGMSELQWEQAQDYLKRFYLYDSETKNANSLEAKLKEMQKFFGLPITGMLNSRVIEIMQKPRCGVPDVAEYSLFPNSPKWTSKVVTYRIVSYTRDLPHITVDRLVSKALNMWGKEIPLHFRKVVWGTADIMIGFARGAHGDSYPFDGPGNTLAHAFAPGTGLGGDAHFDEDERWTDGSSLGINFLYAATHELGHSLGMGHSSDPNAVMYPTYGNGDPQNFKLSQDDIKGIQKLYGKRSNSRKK
72 kDa type IV collagenase, sequence (P08253 whole entry): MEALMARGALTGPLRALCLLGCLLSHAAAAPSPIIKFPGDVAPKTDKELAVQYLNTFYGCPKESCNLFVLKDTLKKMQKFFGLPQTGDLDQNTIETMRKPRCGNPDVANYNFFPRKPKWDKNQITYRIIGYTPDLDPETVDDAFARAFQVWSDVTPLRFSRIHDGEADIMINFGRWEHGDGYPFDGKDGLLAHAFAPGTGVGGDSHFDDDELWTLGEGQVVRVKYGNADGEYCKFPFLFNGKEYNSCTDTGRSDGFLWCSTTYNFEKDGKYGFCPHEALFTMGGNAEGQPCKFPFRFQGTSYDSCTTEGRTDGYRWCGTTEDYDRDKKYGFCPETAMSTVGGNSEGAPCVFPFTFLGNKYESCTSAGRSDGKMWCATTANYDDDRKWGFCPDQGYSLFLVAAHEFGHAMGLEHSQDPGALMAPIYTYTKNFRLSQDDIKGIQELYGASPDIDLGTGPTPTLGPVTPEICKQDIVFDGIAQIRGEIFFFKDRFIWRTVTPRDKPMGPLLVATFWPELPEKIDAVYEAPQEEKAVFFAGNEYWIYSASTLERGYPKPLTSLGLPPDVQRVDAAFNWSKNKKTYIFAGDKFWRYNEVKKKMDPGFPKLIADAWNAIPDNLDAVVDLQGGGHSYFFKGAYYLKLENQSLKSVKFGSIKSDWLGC
Stromelysin-1, sequence (P08254 whole entry): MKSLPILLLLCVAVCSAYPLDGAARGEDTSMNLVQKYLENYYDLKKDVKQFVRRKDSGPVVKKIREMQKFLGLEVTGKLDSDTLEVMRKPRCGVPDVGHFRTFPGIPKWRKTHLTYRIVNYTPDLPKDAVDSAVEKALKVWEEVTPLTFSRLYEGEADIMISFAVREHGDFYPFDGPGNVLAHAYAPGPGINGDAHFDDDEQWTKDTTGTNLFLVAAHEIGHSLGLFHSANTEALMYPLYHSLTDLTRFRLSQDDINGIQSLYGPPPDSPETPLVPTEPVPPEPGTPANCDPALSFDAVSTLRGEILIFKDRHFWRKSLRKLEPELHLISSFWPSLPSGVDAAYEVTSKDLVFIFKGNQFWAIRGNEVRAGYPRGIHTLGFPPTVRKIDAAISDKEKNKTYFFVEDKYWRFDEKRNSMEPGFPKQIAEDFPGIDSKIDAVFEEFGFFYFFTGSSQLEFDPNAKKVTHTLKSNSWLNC
Neprilysin, sequence (P08473 whole entry): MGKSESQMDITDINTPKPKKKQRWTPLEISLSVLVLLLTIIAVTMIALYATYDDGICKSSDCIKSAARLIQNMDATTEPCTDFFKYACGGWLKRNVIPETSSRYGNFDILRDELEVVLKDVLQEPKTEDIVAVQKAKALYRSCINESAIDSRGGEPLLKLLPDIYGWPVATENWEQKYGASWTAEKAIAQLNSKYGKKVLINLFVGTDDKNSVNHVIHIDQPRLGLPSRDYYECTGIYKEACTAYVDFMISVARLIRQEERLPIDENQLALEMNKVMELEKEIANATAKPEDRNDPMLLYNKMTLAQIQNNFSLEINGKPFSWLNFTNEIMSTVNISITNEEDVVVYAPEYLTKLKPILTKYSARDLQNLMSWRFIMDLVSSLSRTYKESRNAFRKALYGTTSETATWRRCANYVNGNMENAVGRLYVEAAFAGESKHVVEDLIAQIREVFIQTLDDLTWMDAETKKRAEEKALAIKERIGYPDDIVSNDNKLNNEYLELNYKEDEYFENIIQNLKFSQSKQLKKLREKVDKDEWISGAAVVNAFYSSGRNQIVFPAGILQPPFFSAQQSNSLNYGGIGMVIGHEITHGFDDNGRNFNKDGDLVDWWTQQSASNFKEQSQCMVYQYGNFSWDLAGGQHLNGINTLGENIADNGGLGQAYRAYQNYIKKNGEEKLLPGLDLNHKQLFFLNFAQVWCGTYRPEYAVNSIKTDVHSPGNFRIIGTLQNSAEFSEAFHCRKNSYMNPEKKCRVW

IC50 [1]: 0.24 nM
SMILES: CC(C)(C)NC(=O)[C@@H]1C[C@@H]2CCCC[C@@H]2CN1C[C@@H](O)[C@H](Cc1ccccc1)NC(=O)[C@@H](NC(=O)c1ccc2ccccc2n1)[C@@H]1CCOC1
IC95 [2]: 8 nM

SMILES: CC(C)C[C@H](NC(=O)[C@H](Cc1ccccc1)N/C=C/NC(=O)CNC(=O)[C@@H](N)Cc1ccc(O)cc1)C(=O)O
Ki [3]: 587 nM

SMILES: CCCCCCCCCCCCNC(=O)N[C@@H](CO)[C@H](O)c1ccc([N+](=O)[O-])cc1
IC50 (PC-3 [4]): 36 µM
IC50 (CAKI-2): 80 µM
IC50 (HT-29): 55 µM
IC50 (A549): 60 µM
IC50 (HL-60 [5]): 30 µM

Kapp [6]: 8.7 10^5/M
Kapp [7]: 3.5 10^5/M
SMILES: CN(C)CCCNC(=O)c1cc(NC(=O)c2cc(NC(=O)c3cc([N+](=O)[O-])cn3C)cn2C)cn1C

SMILES: O=C(N[C@@H](Cc1ccccc1)[C@@H](O)C[C@@H](Cc1ccccc1)C(=O)N[C@H]1c2ccccc2C[C@H]1O)O[C@H]1CCOC1
IC50 [8]: < 0.03 nM
IC95 [2]: 3 nM

Kapp [6]: 16.9 10^5/M
Kapp [7]: 7.4 10^5/M
SMILES: CN(C)CCCNC(=O)c1cc(NC(=O)c2cc(/C=C/c3cc([N+](=O)[O-])cn3C)cn2C)cn1C

SMILES: CCN(C(C)C)S(=O)(=O)CC[C@@H]1O[C@@H]1[C@H](Cc1ccccc1)NC(=O)[C@H](CC(C)(C)S(C)(=O)=O)NC(=O)c1ccc2ccccc2n1
IC50 [9]: 6.6 nM

SMILES: N=C(N)NCCCCCCNC(=O)COC(=O)NCCCCNCCCN
Survival (Rattus norvegicus): 54 days
Survival (Mus musculus [10]): 46 days
Survival (Mus musculus [11]): 58 days

Kapp [6]: 150 10^5/M
Kapp [7]: 0.9 10^5/M
SMILES: CN(C)CCCNC(=O)c1cc(NC(=O)c2cc(NC(=O)c3cc(NC=O)cn3C)cn2C)cn1C

SMILES: CS(=O)(=O)c1ccc(-c2cn(-c3ccc(Cl)c(-c4ccccn4)c3)nn2)c(Cl)c1
IC50 [12]: 40 µM
IC50 (HMEC-1): 9.6 µM
IC50 (CCRF-CEM): 50 µM
IC50 (HeLa [13]): > 100 µM
IC50 (L1210): 82 µM

IC50 (MDA-MB-231): 14.2 µM
SMILES: O=S(=O)(NCc1ccc2c(c1)OCO2)c1ccccc1

Ki (Neprilysin): 2.3 nM
SMILES: O=C(O)CC(=O)N[C@@H](CS)Cc1ccccc1

KiH [14]: 0.14 nM
KiL [14]: 183 nM
KiH [15]: 0.098 nM
KiL [15]: 171 nM
SMILES: NC(=O)[C@H]1CS[C@@H]2C[C@@H](N3CC(=O)N4CCC[C@H]4C3=O)C(=O)N12

IC50 (Integrin alpha-4/beta-1): 0.13 nM
SMILES: COc1cccc(OC)c1-c1ccc(C[C@H](N=C(NCC(F)(F)F)[C@@H]2CCN2S(=O)(=O)c2ccccc2)C(=O)O)cc1

IC50 (MDA-MB-231): ≥ 200 µM
SMILES: COc1ccc(C(=O)NCc2ccc3c(c2)OCO3)cc1

SMILES: CCCCCCCCCCCCCC(=O)N[C@@H](CO)[C@H](O)c1ccc([N+](=O)[O-])cc1
IC50 (PC-3 [4]): 83 µM
IC50 (HeLa [16]): 78 µM
IC50 (CAKI-2): 107 µM
IC50 (PC-3 [17]): 123 µM
IC50 (HT-29): 96 µM
IC50 (A549): 64 µM
IC50 (HL-60 [5]): 28 µM
IC50 (HL-60 [18]): 48 µM

SMILES: NCCCNCCCCNC(=O)CC(=O)NCCCCCCN=C(N)N
Survival (Rattus norvegicus): 9 days
Survival (Mus musculus [10]): 53 days
Survival (Mus musculus [11]): 52 days

SMILES: CC(C)(C)NS(=O)(=O)CC[C@@H]1O[C@@H]1[C@H](Cc1ccccc1)NOC(=O)CCC(=O)NC(=O)c1ccc2ccccc2n1
IC50 [9]: 30 nM

SMILES: COC(=O)c1ccc(-c2cn(-c3cccc(-c4ccccc4)c3)nn2)cc1
IC50 [12]: 0.42 µM
IC50 (HMEC-1): 0.62 µM
IC50 (CCRF-CEM): 0.92 µM
IC50 (HeLa [13]): 1.1 µM
IC50 (L1210): 1.1 µM

SMILES: CC(C)C(NC(=O)C[C@@H]1O[C@@H]1[C@H](Cc1ccccc1)NC(=O)[C@H](CC(N)=O)NC(=O)c1ccc2ccccc2n1)C(C)C
IC50 [9]: 20 nM

IC50 (Matrilysin): 11 nM
IC50 [19]: 0.85 nM
IC50 (Interstitial collagenase): 1.1 nM
bioavailability [20]: 15%
IC50 (Stromelysin-1): 10 nM
half-life [21]: 1620 min
SMILES: C=CC[C@H](C(=O)NO)[C@@H](CC(C)C)C(=O)N[C@H](C(=O)NC)C(C)(C)C

SMILES: CS(=O)(=O)c1ccc(C(=O)Nc2ccc(Cl)c(-c3ccccn3)c2)c(Cl)c1 [VISMODEGIB]
IC50 [12]: 50 µM
IC50 (HMEC-1): 41 µM
IC50 (CCRF-CEM): 58 µM
IC50 (HeLa [13]): 64 µM
IC50 (L1210): 49 µM
